Data from US9453005B2, “Inhibition of influenza M2 proton channel” (The Trustees Of The University Of Pennsylvania, priority 2008, dated 2016).
Like-named read-outs stand apart in the source and are kept apart here.

Molecular target: AM2 (Influenza A virus, UniProt P0DOF5)
Assay: biochemical
Assay type: biochemical
Details: for change of potency on replacing or installing the head group: compared with the parent compound (BL-1743; 12 for 13); for % Activity: AM2

AM2, sequence (P0DOF5 whole entry): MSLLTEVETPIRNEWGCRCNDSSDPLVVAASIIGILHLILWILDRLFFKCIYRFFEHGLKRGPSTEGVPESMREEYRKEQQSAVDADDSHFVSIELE

## C1CCC2(C1)CCN(C1=NCCN1)CC2 [Compound 13, 8-(4,5-Dihydro-1H-imidazol-2-yl)-8-aza-spiro[4.5]decane]
  change of potency on replacing or installing the head group: detrimental to the activity

## CN1CCC2(CCCCC2)CC1.Cl [Compound 3, 3-methyl-3-azoniaspiro[5.5]undecane chloride]
  % Activity: 7%
Table 1, read-out: IC50
  IC50: 20.6 µM

## C1CCC2CN(C3=NCCN3)CCC2C1 (mixture of isomers) [Compound 15, 2-(octahydroisoquinolin-2(1H)-yl)-4,5-dihydro-1H-imidazol-1-ium iodide]
  IC50: 29.5 µM

## NC1CCC2(CCCCC2)CC1 [Compound 8, Spiro[5.5]undec-3-ylamine]
  % Activity: 11%

## OC(c1cnc[nH]1)N1CCC2(CCCCC2)CC1 (stereo not drawn) [Compound 19, (3-Aza-spiro[5.5]undec-3-yl)-(3H-imidazol-4-yl)-methanol]
  % Activity: 30%

## O=C1CCCC(=O)C12CCNCC2 [Compound 10, 3-Aza-spiro[5.5]undecane-7,11-dione]
  % Activity: 100%
SAR of BL-1743, read-out: IC50
  IC50: > 100 µM
At 100 μM tested
  activity at 100 μM: no activity

## NC(=S)N1CCC2(CCCCC2)CC1 [Compound 5, 3-Aza-spiro[5,5]undecane-3-carbothioic acid amide]
  % Activity: 60%
  change of potency on replacing or installing the head group: no improvement of potency

## C1CCC2(C1)CCNCC2 [Compound 12, 8-Aza-spiro[4.5]decane]
  % Activity: 12 (16.2%)
Table 1, read-out: IC50
  IC50: 8.14 µM

## CNC1CC2CC1C1CCCC21 (stereo not drawn) [Compound 17, N-methyl-N-tricyclo[5.2.1.0 2,6]dec-8-ylaminium chloride]
  IC50: 13.6 µM

## NS(=O)(=O)N1CCC2(CCCCC2)CC1 [Compound 6, 3-Aza-spiro[5,5]undecane-3-sulfonic acid amide]
  % Activity: 6 (14%)
  change of potency on replacing or installing the head group: Increases of potency
Table 1, read-out: IC50
  IC50: 15.3 µM

## NC1CC2CC1C1CCCC21 (stereo not drawn) [Compound 16, tricyclo[5.2.1.0 2,6]dec-8-ylaminium chloride]
  IC50: 15.3 µM

## NC(=O)N1CCC2(CCCCC2)CC1 [Compound 4, 3-Aza-spiro[5.5]undecane-3-carboxylic acid amide]
  % Activity: 30%
  change of potency on replacing or installing the head group: no improvement of potency

## S=C1CCCC(=S)C12CCNCC2 [Compound 11, 3-Aza-spiro[5.5]undecane-7,11-dithione]
  % Activity: 12%
SAR of BL-1743, read-out: IC50
  IC50: 37.6 µM

## C1CCC2(CC1)CCNC2.Cl [Compound 23, 2-Aza-spiro[4.5]decane hydrochloride]
  % Activity: 23 (6%)

## N=C(N)N1CCC2(CCCCC2)CC1 [Compound 7, 3-Aza-spiro[5,5]undecane-3-carboxamidine]
  % Activity: 13%
  change of potency on replacing or installing the head group: Increases of potency
Table 1, read-out: IC50
  IC50: 22.8 µM

## CC1(C)CCNCC1.Cl [Compound 22, 4,4-Dimethyl-piperidine hydrochloride]
  % Activity: 22 (55%)
